Measured values reported in PubChem BioAssay AID2060884 (Molecular Pharmacology Branch, DTP, NCI, 2025).

Test system: NCI-H929 complex spheroids, viability % test/control
Test: Anticancer human tumor NCI-H929 cell line growth inhibition [RAS];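 note: compound exposure lasted seven days before viability was read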;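 for viability, T/C: 100% = DMSO vehicle control viability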
Settings: for IC50: curve of first compound; for viability, T/C: stronger effect = lower value
Method in brief: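 Multi-cell-type spheroids: tumor cells plus HUVEC endothelial cells and mesenchymal stem cells. RAS-pathway inhibitors were combined with targeted agents, each dosed in half-log steps down from clinical Cmax, or from 10 microM when Cmax was unknown.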

[1] = second compound 0.000949 µM, first compound 0.0316 µM
[2] = second compound 0.000949 µM, first compound 0.1 µM
[3] = second compound 0.000949 µM, first compound 0.316 µM
[4] = second compound 0.000949 µM, first compound 1 µM
[5] = second compound 0.000949 µM, first compound 3.16 µM
[6] = second compound 0.000949 µM, first compound 10 µM
[7] = second compound 0.003 µM, first compound 0.0316 µM
[8] = second compound 0.003 µM, first compound 0.1 µM
[9] = second compound 0.003 µM, first compound 0.316 µM
[10] = second compound 0.003 µM, first compound 1 µM
[11] = second compound 0.003 µM, first compound 3.16 µM
[12] = second compound 0.003 µM, first compound 10 µM
[13] = second compound 0.00949 µM, first compound 0.0316 µM
[14] = second compound 0.00949 µM, first compound 0.1 µM
[15] = second compound 0.00949 µM, first compound 0.316 µM
[16] = second compound 0.00949 µM, first compound 1 µM
[17] = second compound 0.00949 µM, first compound 3.16 µM
[18] = second compound 0.00949 µM, first compound 10 µM
[19] = second compound 0.03 µM, first compound 0.0316 µM
[20] = second compound 0.03 µM, first compound 0.1 µM
[21] = second compound 0.03 µM, first compound 0.316 µM
[22] = second compound 0.03 µM, first compound 1 µM
[23] = second compound 0.03 µM, first compound 3.16 µM
[24] = second compound 0.03 µM, first compound 10 µM
[25] = second compound 0.0949 µM, first compound 0.0316 µM
[26] = second compound 0.0949 µM, first compound 0.1 µM
[27] = second compound 0.0949 µM, first compound 0.316 µM
[28] = second compound 0.0949 µM, first compound 1 µM
[29] = second compound 0.0949 µM, first compound 3.16 µM
[30] = second compound 0.0949 µM, first compound 10 µM
[31] = second compound 0.3 µM, first compound 0.0316 µM
[32] = second compound 0.3 µM, first compound 0.1 µM
[33] = second compound 0.3 µM, first compound 0.316 µM
[34] = second compound 0.3 µM, first compound 1 µM
[35] = second compound 0.3 µM, first compound 3.16 µM
[36] = second compound 0.3 µM, first compound 10 µM

In the case of `CC(=O)OC12COC1CC(O)C1(C)C(=O)C(O)C3=C(C)C(OC(=O)C(O)C(NC(=O)OC(C)(C)C)c4ccccc4)CC(O)(C(OC(=O)c4ccccc4)C21)C3(C)C` (stereo unspecified) + CCn1c(-c2cccnc2C(C)OC)c2c3cc(ccc31)N1CCOC(CC(NC(=O)C(C(C)C)N(C)C(=O)C3(F)CCN(C(=O)C#CC(C)(C)N(C)C)CC3)C(=O)N3CCCC(N3)C(=O)OCC(C)(C)C2)C1, the IC50 (second compound 0.000949 µM) is reported as < 31.6 nM, the IC50 (second compound 0.003 µM) is reported as < 31.6 nM and the IC50 (second compound 0.00949 µM) is reported as < 31.6 nM. For the same molecule, the IC50 (second compound 0.03 µM) was < 31.6 nM, the IC50 (second compound 0.0949 µM) was < 31.6 nM and the IC50 (second compound 0.3 µM) was < 31.6 nM. For the same molecule, the viability, T/C [1] was 0.74%, the viability, T/C [2] was 0.57% and the viability, T/C [3] was 0.52%. For the same molecule, the viability, T/C [4] was 0.54%, the viability, T/C [5] was 0.6% and the viability, T/C [6] was 0.65%. For the same molecule, the viability, T/C [7] was 0.76%, the viability, T/C [8] was 0.89% and the viability, T/C [9] was 0.7%. The viability, T/C [10] was 0.54%, the viability, T/C [11] was 0.6% and the viability, T/C [12] was 0.71%. The viability, T/C [13] was 0.76%, the viability, T/C [14] was 0.82% and the viability, T/C [15] was 0.62%. For the same molecule, the viability, T/C [16] was 0.64%, the viability, T/C [17] was 0.66% and the viability, T/C [18] was 0.68%. It also gave a viability, T/C [19] of 0.73%, a viability, T/C [20] of 0.53% and a viability, T/C [21] of 0.75%. It also gave a viability, T/C [22] of 0.63%, a viability, T/C [23] of 0.5% and a viability, T/C [24] of 0.52%. It also gave a viability, T/C [25] of 0.63%, a viability, T/C [26] of 0.57% and a viability, T/C [27] of 0.51%. The viability, T/C [28] was 0.63%, the viability, T/C [29] was 0.58% and the viability, T/C [30] was 0.72%. It also gave a viability, T/C [31] of 0.63%, a viability, T/C [32] of 0.68% and a viability, T/C [33] of 0.63%. It also gave a viability, T/C [34] of 0.6%, a viability, T/C [35] of 0.65% and a viability, T/C [36] of 0.71%.

With `NC1c2ccccc2OC12CCN(c1cnc3c(N4CCCc5ncccc54)n[nH]c3n1)CC2` (stereo unspecified) + CCn1c(-c2cccnc2C(C)OC)c2c3cc(ccc31)N1CCOC(CC(NC(=O)C(C(C)C)N(C)C(=O)C3(F)CCN(C(=O)C#CC(C)(C)N(C)C)CC3)C(=O)N3CCCC(N3)C(=O)OCC(C)(C)C2)C1 the IC50 (second compound 0.000949 µM) was > 10000 nM, the IC50 (second compound 0.003 µM) was > 10000 nM and the IC50 (second compound 0.00949 µM) was > 10000 nM. The IC50 (second compound 0.03 µM) was > 10000 nM, the IC50 (second compound 0.0949 µM) was 9050 nM and the IC50 (second compound 0.3 µM) was 8980 nM. The viability, T/C [1] was 103%, the viability, T/C [2] was 100% and the viability, T/C [3] was 103%. For the same molecule, the viability, T/C [4] was 98.5%, the viability, T/C [5] was 94.5% and the viability, T/C [6] was 60.7%. It also gave a viability, T/C [7] of 103%, a viability, T/C [8] of 96.5% and a viability, T/C [9] of 102%. For the same molecule, the viability, T/C [10] was 97.7%, the viability, T/C [11] was 95.7% and the viability, T/C [12] was 58.5%. It also gave a viability, T/C [13] of 101%, a viability, T/C [14] of 99.6% and a viability, T/C [15] of 101%. It also gave a viability, T/C [16] of 96.8%, a viability, T/C [17] of 93.2% and a viability, T/C [18] of 54.1%. The viability, T/C [19] was 97.7%, the viability, T/C [20] was 96.9% and the viability, T/C [21] was 99.8%. It also gave a viability, T/C [22] of 99.7%, a viability, T/C [23] of 90.9% and a viability, T/C [24] of 54.2%. The viability, T/C [25] was 99.1%, the viability, T/C [26] was 98.2% and the viability, T/C [27] was 93.6%. The viability, T/C [28] was 91.2%, the viability, T/C [29] was 86.5% and the viability, T/C [30] was 46.3%. The viability, T/C [31] was 95.7%, the viability, T/C [32] was 99.6% and the viability, T/C [33] was 99.5%. For the same molecule, the viability, T/C [34] was 93.2%, the viability, T/C [35] was 76.8% and the viability, T/C [36] was 47.2%.

`Nc1ccn(C2OC(CO)C(O)C2(F)F)c(=O)n1` (stereo unspecified) + CCn1c(-c2cccnc2C(C)OC)c2c3cc(ccc31)N1CCOC(CC(NC(=O)C(C(C)C)N(C)C(=O)C3(F)CCN(C(=O)C#CC(C)(C)N(C)C)CC3)C(=O)N3CCCC(N3)C(=O)OCC(C)(C)C2)C1 showed an IC50 (second compound 0.000949 µM) of 6.16 nM, an IC50 (second compound 0.003 µM) of 6.22 nM and an IC50 (second compound 0.00949 µM) of 5.72 nM. The IC50 (second compound 0.03 µM) was 5.97 nM, the IC50 (second compound 0.0949 µM) was 5.49 nM and the IC50 (second compound 0.3 µM) was 5.79 nM. The viability, T/C (second compound 0.000949 µM, first compound 0.00316 µM) was 105%, the viability, T/C (second compound 0.000949 µM, first compound 0.01 µM) was 10.1% and the viability, T/C [1] was 0.99%. For the same molecule, the viability, T/C [2] was 0.68%, the viability, T/C [3] was 0.75% and the viability, T/C [4] was 0.74%. It also gave a viability, T/C (second compound 0.003 µM, first compound 0.00316 µM) of 103%, a viability, T/C (second compound 0.003 µM, first compound 0.01 µM) of 12.8% and a viability, T/C [7] of 0.86%. The viability, T/C [8] was 0.83%, the viability, T/C [9] was 0.91% and the viability, T/C [10] was 0.96%. It also gave a viability, T/C (second compound 0.00949 µM, first compound 0.00316 µM) of 96.3%, a viability, T/C (second compound 0.00949 µM, first compound 0.01 µM) of 6.3% and a viability, T/C [13] of 1.25%. The viability, T/C [14] was 0.77%, the viability, T/C [15] was 0.75% and the viability, T/C [16] was 0.72%. For the same molecule, the viability, T/C (second compound 0.03 µM, first compound 0.00316 µM) was 99.8%, the viability, T/C (second compound 0.03 µM, first compound 0.01 µM) was 9.61% and the viability, T/C [19] was 1.21%. It also gave a viability, T/C [20] of 0.91%, a viability, T/C [21] of 0.88% and a viability, T/C [22] of 0.89%. For the same molecule, the viability, T/C (second compound 0.0949 µM, first compound 0.00316 µM) was 92.5%, the viability, T/C (second compound 0.0949 µM, first compound 0.01 µM) was 3.76% and the viability, T/C [25] was 1.08%. The viability, T/C [26] was 0.91%, the viability, T/C [27] was 0.76% and the viability, T/C [28] was 0.75%. It also gave a viability, T/C (second compound 0.3 µM, first compound 0.00316 µM) of 103%, a viability, T/C (second compound 0.3 µM, first compound 0.01 µM) of 2.46% and a viability, T/C [31] of 1.01%. It also gave a viability, T/C [32] of 0.96%, a viability, T/C [33] of 0.99% and a viability, T/C [34] of 0.8%.
